Data taken from US20070190651A1, “Myogenic Development and Protection of Stem Cells Against Inflammation and Apoptosis By Statins and Isoprenoid Pathway Inhibitors” (Board of Regents of the University of Texas System, priority 2006, published 2007).
“Also recorded” adds a separate entry of the source. Residues, ends and D or L forms follow the SMILES beside them. *: point of attachment. Cbz = O=C(OCc1ccccc1)*

Columns and labels:
[1] = animals; cited from earlier work
[2] = test system: mouse peritoneal macrophages; test: TUNEL staining of acLDL-loaded mouse peritoneal macrophages; format: cell-based; conditions: for number of TUNEL positive cells: acLDL-preloaded macrophages, agent alone, over incubation time
Method: FIG. 15 is a graph showing TUNEL staining of mouse peritoneal macrophages. Macrophages loaded with acLDL were treated with CP-113,818 (▪), CP-113,818 plus U18666A (♦), or U18666A in medium containing 0.2% BSA (□). After treatment the cells were fixed and nuclear DNA fragments were labeled using a fluorescent TUNEL assay.
It was tested whether cholesterol accumulation can induce apoptosis in cells treated with the acyl coenzyme-A:cholesterol acyltransferase (ACAT) inhibitor CP-113,818. In situ labeling of DNA fragments were analyzed in murine macrophages treated with the inhibitors using the TUNEL technique. […] Few TUNEL positive cells were detected in untreated control and in cultures treated with CP-113,818 plus U18666A for 24 h. Thus, inhibition of cholesterol transport with U18666A blocked the apoptotic effect of the ACAT inhibitor.

iNOS [3] = test: Nitrite production (Griess reaction) in H9c2 cardiac myoblasts; format: cell-based, rat; conditions: for effect on nitrite production in cells treated with simvastatin plus IL-1α: added to simvastatin + IL-1α 20 ng/mL
Method: Cell cultures. H9c2 cells purchased from American Type Culture Collection (ATCC, Rockville, Md.) are spontaneously immortalized ventricular myoblasts from the rat embryo, with preservation of several electrical and biochemical characteristics found in adult cardiomyocytes. […] After certain time intervals, 100 μL/well culture media were collected for determination of nitrite production. Assay for NO Production. The activity of iNOS was determined in the culture medium by assaying nitrites, taken as an index of NO production, using the Griess reagent (1% sulphanilic acid and 0.1% N-[1-naphtyl] ethylenediamine-HCl in 5% phosphoric acid) as reported previously (4,18,19). Equal volumes of medium and Griess reagent were mixed, and the purple products quantified spectrophotometrically at 550 nm. Nitrite concentrations were determined from a linear standard curve constructed with known concentrations of sodium nitrite (0 to 40 μmol/L nitrite). Nitrite Assays. Nitrite, a stable end-product of nitric oxide, was measured by using Griess reagent (1% sulphanilic acid and 0.1% N-[1-naphtyl] ethylenediamine-HCl in 5% phosphoric acid). Equal volumes of medium and Griess reagent were mixed, and the resulting purple product quantified by spectrophotometric assay at 550 nm. Nitrite concentrations were calculated from a linear standard curve constructed with known concentrations of sodium nitrite (0-14 μmol/L nitrite) (19).

iNOS [4] = test: Immunoblotting for iNOS protein in cytokine-stimulated H9c2 cardiac myoblasts; format: cell-based, rat; conditions: for effect on simvastatin inhibition of cytokine-induced iNOS protein expression: added to simvastatin + IL-1α or TNF-α
Method: Cell cultures. H9c2 cells purchased from American Type Culture Collection (ATCC, Rockville, Md.) are spontaneously immortalized ventricular myoblasts from the rat embryo, with preservation of several electrical and biochemical characteristics found in adult cardiomyocytes. They were cultured in DMEM medium (ATCC) supplemented with 10% heat-inactivated fetal bovine serum (FBS) in 95% air and 5% CO2 at 37° C. […] After certain time intervals, 100 μL/well culture media were collected for determination of nitrite production.
Immunoblotting. Total proteins were isolated from rat cardiac myoblasts (H9c2 cells) or embryonic stem cells in an ice-cold lysis buffer containing 10 mmol/L Tris (tris(hydroxymethyl)aminomethane) (pH 7.4), 1% sodium dodecyl sulfate (SDS) and 1× protease inhibitor (1 mmol/L sodium orthovanadate). Proteins (15 μg/lane) were separated under the reducing conditions (125 mM Tris pH 6.8, 4% SDS, 10% glycerol, 0.006% bromophenol blue, 2% β-mercaptoethanol) by electrophoresis onto 5-10% SDS-polyacrylamide gel and electro-blotted to nitrocellulose membranes (Osmonics, Westborough, Mass.). The membranes were reversibly stained with Ponceau red (Sigma) to verify equal protein loading and/or transfer. After blocking in Tris-buffered saline (0.2 M Tris and 8% NaCl) containing 5% non-fat powdered milk and 0.1% Tween 20 for 1 hour at room temperature, the membranes were incubated overnight at 4° C. with following primary antibodies to (a) iNOS (Transduction Laboratories, Lexington, Ky.; BD Biosciences); (b) NF-κB p65/rel (Santa Cruz Biotechnologies, Santa Cruz, Calif.); (c) ser^32-phosphorylated inhibitor IκBα (Santa Cruz); (d) Bad (BD Biosciences, San Jose, Calif.); (e) Bcl-xL (BD Biosciences); (f) proliferating cell nuclear antigen (PCNA; BC Biosciences); (g) ryanodine receptor (Santa Cruze Biotechnology, Inc., Santa Cruz, Calif.); (h) α-sarcomeric actinin (Sigma); (i) myocardin A (developed by immunizing rabbits with a synthetic myocardin A peptide); (j) Tie-2 (Santa Cruz); (k) manganese superoxide dismutase (Santa Cruz); and (1) β-tubulin (Sigma). The blots were incubated with horseradish peroxidase-coupled secondary antibodies, washed and developed by using a SuperSignal West Pico Chemiluminescent Substrate Kit (Pierce, Rockford, Ill.). Intensity of each immunoreactive protein band was quantified by densitometric analysis. Cytokine-stimulated RAW 264.7 cells (Transduction Laboratories, Lexington, Ky.) were used as positive controls.

hESC-derived EB = test: hESC embryoid body formation with proteasomal inhibitor; format: cell-based, human; conditions: MG132 at 100 nm in hanging drops, then regular culture 1-2 days
Method: FIG. 13 is a pair of photomicrographs showing hESC-derived EB after treatment with MG132 for 2 days. a, untreated and b, treated.
To determine whether protein ubiquitination has any impact on EB formation, hESCs were cultured in hanging-drops with the proteasomal inhibitor MG132 at 100 nm, and then plated in regular culture for 1-2 days.

NF-κB p65/RelA = test: Immunoblotting for p65/RelA subunit of NF-κB, total cellular or nuclear proteins of H9c2 cells; format: cell-based, rat; conditions: Y-27632 10^−4 mol/L
Rho kinase = conditions: cited from earlier work
β-adrenergic receptors = test: Edge-motion detection of mESC-derived contractile myogenic cells; format: cell-based, murine
Method: FIG. 11 is a series of graphs showing edge-motion detection of mESC-derived contractile myogenic cells untreated (upper) or treated with isoproterenol (10 ng/ml) in the absence (middle) or presence (lower) of propanolol (25 ng/ml).
hESC grown in DMEM media with 10% fetal bovin serum and a group of growth factors were induced to differentiate in a hang-drop 3D cell culture system. hESCs from two (H1 or H9) lines were cultured with a mouse fetal fibroblast feeder layer. After forming EBs in the hanging-drop 3D system they were replated in 12-well plates. […] Surrounding the beating colonies, the cells developed a blood vessel-like structure (FIG. 10). Using the edge-motion detection technique, a single beating myogenic cell within the developing EBs was recorded. This provides a functional marker showing the differentiational potential in cardiomyogenesis.

IκBα = test: Immunoblotting for ser32 phosphorylated IκBα in H9c2 cells; format: cell-based, rat; conditions: 24 h
Method: Immunoreactive bands were quantified by densitometry (Panel B).
Immunoblotting. Total proteins were isolated from rat cardiac myoblasts (H9c2 cells) or embryonic stem cells in an ice-cold lysis buffer containing 10 mmol/L Tris (tris(hydroxymethyl)aminomethane) (pH 7.4), 1% sodium dodecyl sulfate (SDS) and 1× protease inhibitor (1 mmol/L sodium orthovanadate). Proteins (15 μg/lane) were separated under the reducing conditions (125 mM Tris pH 6.8, 4% SDS, 10% glycerol, 0.006% bromophenol blue, 2% β-mercaptoethanol) by electrophoresis onto 5-10% SDS-polyacrylamide gel and electro-blotted to nitrocellulose membranes (Osmonics, Westborough, Mass.). The membranes were reversibly stained with Ponceau red (Sigma) to verify equal protein loading and/or transfer. […] Intensity of each immunoreactive protein band was quantified by densitometric analysis. […]

[5] = test system: murine embryonic stem cells; format: cell-based; conditions: day 12
Method: At day 12, the number of contracting EB outgrowths (Panel A) and extension of beating area (Panel B) were detrmined by morphometry. The results were plotted as percentages of the total EBs counted in each well and shown as the mean ±SD for each of the 3 separate experiments. *, P<0.05 vs untreated control; #, P<0.05 vs simvastatin-treated control.
The murine ESC (mESC) line CCE was obtained from American Type Culture Collection (ATCC, Rockville, Md.). Murine ESCs were cultured without feeder cells in Dulbecco's modified Eagle's medium supplemented with 10% ESC-qualified Fetal Bovine Serum (FBS) (Stem Cell Technologies, Vancouver, Va.), pyruvate (Stem Cell Technologies, stock solution diluted 1:100), 2 mM L-glutamine, nonessential amino acids (Stem Cell Technologies, stock solution diluted 1:100), 100 IU/mL penicillin, 0.1 mg/mL streptomycin, and leukemia inhibitory factor (LIF) (Stem Cell Technologies). To induce differentiation, EBs were formed from undifferentiated mESCs in hanging drops of 400 cells in 20 μL of medium without LIF. After 5 days in suspension, EBs were plated on gelatin-coated dishes and cultured in cardiomyocyte-differentiation medium (Iscove's modified Eagle's medium, supplemented with 15% FBS, 2 mM L-glutamine, 5×10^−5 M β-mercaptoethanol, nonessential aminoacids, 100 IU/mL penicillin, 0.1 mg/mL streptomycin).
Statin Treatment. […] The inhibition of endogenous cholesterol synthesis was the mechanism used for analyzing the effect of endogenous cholesterol depletion on EB differentiation. By days 8 through 12 after plating, spontaneously contracting cell clusters could be observed within the EB outgrowths. Culture media from both simvastatin-treated and untreated cells were changed each day after day 3.
Spontaneous cardiac differentiation of mouse embryonic stem cells (mESCs) was assessed in vitro as the presence of rhythmically beating […] (EB) outgrowth. […] Thereafter, EB outgrowths were counted periodically under the inverted microscope equipped with a digital video camera, to determine whether or not they contained beating foci at different time points (days 3, 5, 7, 10, 12, and 14). At approximately day 7, contracting areas began to appear. […] Concomitant with the increased number of beating EBs, the size of the beating area for simvastatin-treated EBs increased 2-fold (evaluated at day 12) compared to that of untreated control EBs, a significant augmentation (p<0.05) (FIG. 22B).

Clc1ccccc1CNCC1CCC(CNCc2ccccc2Cl)CC1 (stereo not drawn) [AY 9944]
teratogenic effect [1]: holoprosencephalic brain anomalies

O=C(O)c1ccc(CCN2CCN(C/C=C/c3ccc(Cl)cc3)CC2)cc1 [BM 15766]
teratogenic effect [1]: holoprosencephalic brain anomalies

CCCCCCCC[C@H](SCCCCCC)C(=O)Nc1c(SC)cc(C)nc1SC [CP-113,818]
number of TUNEL positive cells [2]: increase in the number of TUNEL positive cells

CC(C)=CCC/C(C)=C/CC/C(C)=C/COP(=O)(O)OP(=O)(O)O [FPP, farnesylpyrophosphate]
effect on nitrite production in cells treated with simvastatin plus IL-1α (iNOS [3]): did not alter nitrite accumulation

CC(C)=CCC/C(C)=C/CC/C(C)=C/CC/C(C)=C/COP(=O)(O)OP(=O)(O)O [GGPP, geranylgeranylpyrophosphate]
effect on nitrite production in cells treated with simvastatin plus IL-1α (iNOS [3]): attenuates the simvastatin inhibitory effect; also recorded: reversed the simvastatin-mediated suppression | effect on simvastatin inhibition of cytokine-induced iNOS protein expression (iNOS [4]; H9c2): reversed the simvastatin-mediated suppression; also recorded: prevented the inhibitory effect of simvastatin; also recorded: attenuates the simvastatin inhibitory effect

CC(C)C[C@@H](C=O)NC(=O)[C@H](CC(C)C)NC(=O)[C@H](CC(C)C)NC(=O)OCc1ccccc1 [MG132] (Cbz-Leu-Leu-Leu-aldehyde)
EB morphology / cell differentiation (hESC-derived EB): spread out and surrounded by differentiated cells | EB morphology / cell differentiation (hESC-derived EB; listed as MG-132): helped the cell differentiation

CCN(CC)CCO[C@H]1CC[C@@]2(C)C(=CC[C@@H]3[C@@H]2CC[C@]2(C)C(=O)CC[C@@H]32)C1 [U18666A]
number of TUNEL positive cells with CP-113,818 co-treatment ([2]; U18666A simultaneously with CP-113,818): greatly reduced | number of TUNEL positive cells [2]: no effect on the number of cells bearing this marker of apoptosis

C[C@@H](N)[C@H]1CC[C@H](C(=O)Nc2ccncc2)CC1 [Y-27632]
nitrite production (iNOS activity) in cytokine-treated cells (iNOS [3]; IL-1α, Y-27632 10^−6 to 10^−5 mol/L, no simvastatin): enhances NO production; also recorded: dose-dependently increased the iNOS activity | effect on nitrite production in cells treated with simvastatin plus IL-1α (iNOS [3]): reversal of the statin-induced nitrite reduction; also recorded: reversed the statin inhibitory effect on iNOS activities | nuclear NF-κB (p65) translocation in presence of IL-1α (NF-κB p65/RelA): no major effect on the nuclear NF-κB translocation | effect on simvastatin inhibition of cytokine-induced iNOS protein expression (iNOS [4]; H9c2): almost abolished the inhibitory effect of simvastatin | cytokine-induced iNOS protein expression in the absence of simvastatin (iNOS [4]; H9c2, cytokine-stimulated, no simvastatin): did not alter cytokine-induced iNOS protein expression

CC(C)c1c(C(=O)Nc2ccccc2)c(-c2ccccc2)c(-c2ccc(F)cc2)n1CC[C@@H](O)C[C@@H](O)CC(=O)O [atorvastatin]
Rho kinase activity (Rho kinase): inhibit the Rho kinase activity

CC(C)CCC[C@@H](C)[C@H]1CC[C@H]2[C@@H]3CC=C4C[C@@H](O)CC[C@]4(C)[C@H]3CC[C@]12C [cholesterol]
effect of exogenous cholesterol on the statin effect on iNOS expression (iNOS [4]): does not prevent the statin effect

CC(C)NCC(O)c1ccc(O)c(O)c1 (stereo not drawn) [isoproterenol]
contraction of beating myocytes (β-adrenergic receptors; mESC-derived EBs, isoproterenol 10 ng/ml): marked increased contraction in both frequency and ampltitute

CC(C)NCC(O)COc1cccc2ccccc12 (stereo not drawn) [propanolol]
effect on isoproterenol stimulation of contraction (β-adrenergic receptors; propanolol 25 ng/ml with isoproterenol 10 ng/ml): almost abolished the isoproterenol stimulatory effect

CCC(C)(C)C(=O)O[C@H]1C[C@@H](C)C=C2C=C[C@H](C)[C@H](CC[C@@H]3C[C@@H](O)CC(=O)O3)[C@H]21 [simvastatin]
concentration giving the highest levels of phosphorylated IκBα (IκBα): 10^−7 mol/L | lowest concentration achieving the inhibitory effect on iNOS expression (iNOS [4]; H9c2, cytokine-stimulated): 10^−8 mol/L | size of the beating area, increase compared to untreated control EBs [5]: 2 fold | percentage of beating EB outgrowths ([5]; simvastatin, untreated control 18±0.1%): 42±0.1%

CCN(CC)CCOc1ccc(C(O)(Cc2ccc(Cl)cc2)c2ccc(C)cc2)cc1 (stereo not drawn) [triparanol]
teratogenic effect [1]: holoprosencephalic brain anomalies
